Measurements: patent publication US8703922B2, “Low-viscosity liquid crystal compound” (Chemgenesis Incorporated, priority 2009, dated 2014)

Key:
Format in all cases: physicochemical
[1] = Viscosity measurement with AR Rheometer (AR-G2) of the compounds of Examples 1-11; settings: 25° C., after allowing to stand for 12 hours
Method: (§1) The amphipathic compound according to the present invention is in a liquid or a semi-solid state with low viscosity within relatively a wide temperature range. The amphipathic compound according to the present invention preferably has viscosity of 11 Pa·s or less, generally 10 Pa·s or less, more preferably 4.0 Pa·s or less (e.g., 3.5 Pa·s or less), and further preferably 2.0 Pa·s or less, as measured using a viscometer at 25° C., for example. Such measured viscosity is typically measured at a shear rate of 105.7 l/s. To obtain such a measured value, an AR Rheometer (AR-G2, TA Instrument) or a viscosity and viscoelasticity measuring apparatus MARS (Thermo Fisher Scientific K.K.) can be used as a viscometer.
The viscosity of each of the compounds shown in the Examples 1-11 was measured using AR Rheometer (AR-G2, TA Instrument) after allowing to stand at the temperature of 25° C. for 12 hours.

[2] = Liquid crystal formation in compound/water system, analysed by small-angle X-ray scattering (SAXS); settings: room temperature (25° C.); for Type of liquid crystal formed (SAXS peak ratio): 50 wt % (water-excess condition); for Lattice constant (ac) of the cubic liquid crystal: SAXS
Excerpt: Whether or not a liquid crystal structure has a cubic lattice may be determined by a small-angle X-ray scattering (SAXS) method, for the purpose of confirming whether or not it is cubic liquid crystal. First, an amphipathic compound/water system sample with a predetermined concentration can be added to an X-ray capillary tube made of quartz, for example, and the capillary tube is sealed with an oxy-fuel burner, and subjected to SAXS assay.
Ratio of Pn3m Cubic Liquid Crystal: √{square root over (2)}: √{square root over (3)}: √{square root over (4)}: √{square root over (6)}: √{square root over (8)}: √{square root over (9)}: √{square root over (10)}: , , , [Mathematical expression 1] Ratio of Ia3d Cubic Liquid Crystal: √{square root over (3)}: √{square root over (4)}: √{square root over (7)}: √{square root over (8)}: √{square root over (10)}: √{square root over (11)}: , , , [Mathematical expression 2] Ratio of Im3m Cubic Liquid Crystal: √{square root over (2)}: √{square root over (4)}: √{square root over (6)}: √{square root over (8)}: √{square root over (10)}: √{square root over (12)}: √{square root over (14)}: , , , [Mathematical expression 3]
A peak value is calculated from SAXS data and then the reciprocal ratio is found therefrom according to a method known by persons skilled in the art, so that the space group and the lattice constant can be easily determined.
Mono-O-(5,9,13,17-tetramethyloctadec-4-enoyl)pentaerythritol and pure water were introduced into a mixing device at the concentration of 50 wt % Mono-O-(5,9,13,17-tetramethyloctadec-4-enoyl)pentaerythritol (water-excess condition), and incubation thereof was carried out while performing 100 or more times of mixing operations at room temperature (25° C.) over the period of 24 hours. Thus, a homogeneously mixed sample of mono-O-(5,9,13,17-tetramethyloctadec-4-enoyl)pentaerythritol/water system was obtained. This sample of mono-O-(5,9,13,17-tetramethyloctadec-4-enoyl)pentaerythritol/water system appeared to be a white turbid gel composition.
Subsequently, the thus obtained sample of mono-O-(5,9,13,17-tetramethyloctadec-4-enoyl)pentaerythritol/water system was confirmed to be a cubic liquid crystal by small-angle x-ray scattering (SAXS). The sample of mono-O-(5,9,13,17-tetramethyloctadec-4-enoyl)pentaerythritol/water system was introduced into a quartz X-ray capillary tube, the tip of the capillary was sealed using an oxygen burner, and the capillary tube was subjected to the SAXS analysis. The NANO-Viewer nano-scale X-ray structure analysis equipment (Rigaku) was used for SAXS analysis. SAXS analysis was performed by X-ray irradiation at room temperature (25° C.), 40 kV, 50 mA, wavelength λ=0.1542 nm (Cu-Kα) for 15 min.

[3] = Viscosity measurement with viscosity and viscoelasticity measuring apparatus MARS (Example 179); settings: 25° C., shear velocity 105.7 s^−1, MARS
Method: as §1
The viscosities of the amphiphilic compounds synthesized above were measured at 25° C. and at a shear velocity of 105.7 s^−1 using a viscosity and viscoelasticity measuring apparatus MARS (Thermo Fisher Scientific).

Molecule | Viscosity [1] [Pa·s] | Lattice constant (ac) of the cubic liquid crystal [2] [nm] | Viscosity (Pas · sec) [3] [Pas · sec] | Type of liquid crystal formed (SAXS peak ratio) [2]
CC(=CCCCOC[C@H](O)[C@H](O)CO)CCCC(C)CCCC(C)CCCC(C)C (some centres unmarked) [1-O-(5,9,13,17-tetramethyloctadec-4-enyl)erythritol] | 2.3 | – | – | reverse hexagonal liquid crystal
CC(=CCCCOC(CO)C(O)CO)CCCC(C)CCCC(C)CCCC(C)C (centres unmarked) [2-O-(5,9,13,17-tetramethyloctadec-4-enyl)erythritol] | 3.2 | 8.9 | – | cubic liquid crystal that belong to the crystallographic space group Pn3m
CC(=CCCC(=O)OCC(CO)(CO)CO)CCCC(C)CCCC(C)CCCC(C)C (centres unmarked) [Example 1, mono-O-(5,9,13,17-tetramethyloctadec-4-enoyl)pentaerythritol] | 1.7 | 7.80 | – | cubic liquid crystal that belong to the crystallographic space group Pn3m
CC(=CCCC(=O)OC[C@H](O)[C@H](O)CO)CCCC(C)CCCC(C)CCCC(C)C (some centres unmarked) [Example 2, mono-O-(5,9,13,17-tetramethyloctadec-4-enoyl)erythritol] | 2.0 | – | – | reverse hexagonal liquid crystal
CC(=CCCC(=O)OCC(O)CO)CCCC(C)CCCC(C)CCCC(C)C (centres unmarked) [Example 3, mono-O-(5,9,13,17-tetramethyloctadec-4-enoyl)glycerol] | – | – | – | cubic liquid crystal that belong to the crystallographic space group Pn3m
CC(=CCCCOC1OCC(O)C(O)C1O)CCCC(C)CCCC(C)CCCC(C)C [Example 9, 1-O-(5,9,13,17-tetramethyloctadec-4-enyl)-D-xylopyranoside] | – | 8.9 | – | cubic liquid crystal that belong to the crystallographic space group Pn3m
CC(=CCCCOCC(CO)(CO)CO)CCCC(C)CCCC(C)CCCC(C)C (centres unmarked) [Example 10, mono-O-(5,9,13,17-tetramethyloctadec-4-enyl)pentaerythritol] | 1.9 | – | – | reverse hexagonal liquid crystal
CC(=CCCCOCC(O)CO)CCCC(C)CCCC(C)CCCC(C)C (centres unmarked) [Example 31, mono-O-(5,9,13,17-tetramethyloctadec-4-enyl)glycerol] | – | – | 0.44 | –
CC(=CCCCOCC(O)COCC(O)CO)CCCC(C)CCCC(C)CCCC(C)C (centres unmarked) [Example 32, mono-O-(5,9,13,17-tetramethyloctadec-4-enyl)diglycerol] | – | – | – | cubic liquid crystal that belong to the crystallographic space group Pn3m
CC(=CC(=O)OCC(O)CO)CCCC(C)CCCC(C)CCCC(C)C (centres unmarked) [Example 65, mono-O-(3,7,11,15-tetramethylhexadec-2-enoyl)glycerol] | – | – | 1.1 | –
CC(=CCCCOC1OCC(O)C(O)C1O)CCCC(C)CCCC(C)C [Example 103, 1-O-(5,9,13-trimethyltetradec-4-enyl)-D-xylopyranoside] | – | – | – | cubic liquid crystal that belong to the crystallographic space group Pn3m
CC(=CCCCOCC(O)CO)CCCC(C)CCCC(C)C (centres unmarked) [Example 107, mono-O-(5,9,13-trimethyltetradec-4-enyl)glycerol] | – | – | – | reverse hexagonal liquid crystal
CC(=CCC(=O)OCC(O)CO)CCCC(C)CCCC(C)C (centres unmarked) [Example 120, mono-O-(4,8,12-trimethyltridec-3-enoyl)glycerol] | – | – | – | cubic liquid crystal that belong to the crystallographic space group Pn3m
mono-O-(5,9,13,17-tetramethyloctadec-4-enoyl)di glycerol [Example 4] | – | – | 4.5 | reverse hexagonal liquid crystal

Now from value to molecule, other results behind:

Viscosity [1] [Pa·s] | Lattice constant (ac) of the cubic liquid crystal [2] [nm] | Viscosity (Pas · sec) [3] [Pas · sec] | Molecule | Type of liquid crystal formed (SAXS peak ratio) [2]
– | – | 10.6 | CC(=CC(=O)OCC(CO)(CO)CO)CCCC(C)CCCC(C)CCCC(C)C (centres unmarked) [Example 67, mono-O-(3,7,11,15-tetramethylhexadec-2-enoyl)pentaerythritol] | –
– | – | 9.5 | CC(=CC(=O)OCC(O)COCC(O)CO)CCCC(C)CCCC(C)CCCC(C)C (centres unmarked) [Example 68, mono-O-(3,7,11,15-tetramethylhexadec-2-enoyl)diglycerol] | –
– | – | 0.45 | CC(=CCOCC(O)CO)CCCC(C)CCCC(C)CCCC(C)C (centres unmarked) [Example 80, mono-O-(3,7,11,15-tetramethylhexadec-2-enyl)glycerol] | –
– | – | 4.0 | CC(=CCOCC(CO)(CO)CO)CCCC(C)CCCC(C)CCCC(C)C (centres unmarked) [Example 82, mono-O-(3,7,11,15-tetramethylhexadec-2-enyl)pentaerythritol] | –
– | – | 0.48 | CC(=CCCC(=O)OCC(O)CO)CCCC(C)CCCC(C)C (centres unmarked) [Example 92, mono-O-(5,9,13-trimethyltetradec-4-enoyl)glycerol] | mixture of a cubic liquid crystal that belong to the crystallographic space group Pn3m and a reverse hexagonal liquid crystal
– | – | 10.5 | CC(=CCCC(=O)OCC(O)COCC(O)CO)CCCC(C)CCCC(C)C (centres unmarked) [Example 95, mono-O-(5,9,13-trimethyltetradec-4-enoyl)diglycerol] | –
– | – | 0.98 | CC(=CCCCOCC(CO)(CO)CO)CCCC(C)CCCC(C)C (centres unmarked) [Example 109, mono-O-(5,9,13-trimethyltetradec-4-enyl)pentaerythritol] | –
– | – | 1.7 | CC(=CCCCOCC(O)COCC(O)CO)CCCC(C)CCCC(C)C (centres unmarked) [Example 110, mono-O-(5,9,13-trimethyltetradec-4-enyl)diglycerol] | –
– | – | 0.45 | CC(=CC(=O)OCC(O)CO)CCCC(C)CCCC(C)C (centres unmarked) [Example 146, mono-O-(3,7,11-trimethyldodec-2-enoyl)glycerol] | cubic liquid crystal that belong to the crystallographic space group Pn3m
– | – | 7.1 | CC(=CC(=O)OC[C@H](O)[C@H](O)CO)CCCC(C)CCCC(C)C (some centres unmarked) [Example 147, mono-O-(3,7,11-trimethyldodec-2-enoyl)erythritol] | –
– | – | 6.9 | CC(=CC(=O)OCC(O)COCC(O)CO)CCCC(C)CCCC(C)C (centres unmarked) [Example 149, mono-O-(3,7,11-trimethyldodec-2-enoyl)diglycerol] | –
– | – | 2.7 | CC(=CCOCC(CO)(CO)CO)CCCC(C)CCCC(C)C (centres unmarked) [Example 163, mono-O-(3,7,11-trimethyldodec-2-enyl)pentaerythritol] | –
– | – | 1.1 | CC(=CCOC[C@H](O)[C@@H](O)[C@H](O)CO)CCCC(C)CCCC(C)C (some centres unmarked) [Example 166, mono-O-(3,7,11-trimethyldodec-2-enyl)xylitol] | –
